Results as given in US20260265298A1, “PEPTIDE SUBSTRATES AND INHIBITORS OF CATHEPSIN B” (The Regents of the University of California, priority 2023, published 2026).

How the values were obtained:
[1] = tested on: mouse BV2 microglia cells; assay: Cell death (LDH release) induced by low nutrient stress in microglia cells; type: cell-based; settings: 2 μM; 0% FBS for 24 hours
Procedure: (§1) Regulation of cathepsin B activity during cell death induced by low nutrient stress in microglia cells. […] Microglia cells (mouse BV2 cells) were treated with low nutrient culture media (0% fetal bovine serum, FBS) compared to a normal nutrient condition (10% FSB) for 24 hours. The low nutrient stress condition induced cell death monitored by LDH (lactate dehydrogenase) released into the culture media. The stress-induced increase in cell death was reduced by the inhibitor Z-Arg-Lys-AOMK (2 μM), a selective inhibitor of cathepsin B. (n=6, mean+sem, *p<0.05, student's t-test). […] Cathepsin B activity was elevated in cytosol isolated from microglia cells after treatment with low nutrient stress (0% FBS) for 24 hours. Cathepsin B activity was measured with the specific substrate Z-Nle-Lys-Arg-AMC ([…] in assay). Furthermore, the increase in cytosolic cathepsin B activity was blocked by the cathepsin B inhibitor Z-Arg-Lys-AOMK (2 μM) during low nutrient stress. (n=6, mean+sem, *p<0.05, student's t-test).

cathepsin B [2] = target: T1, cathepsin B (Mus musculus, UniProt P10605); assay: Cytosolic cathepsin B activity in microglia cells during low nutrient stress; type: cell-based; settings: 2 μM; 0% FBS for 24 hours; substrate Z-Nle-Lys-Arg-AMC
T1 construct: from tissue; host or cells: mouse ipsilateral brain cortex (homogenate and cytosol) after controlled cortical impact TBI
Procedure: as §1

cathepsin B [3] = target: T1, cathepsin B; assay: Cathepsin B activity in ipsilateral brain cortex of TBI mice; type: in vivo; settings: 20 mg/kg, ip; day 6 after TBI
Procedure: (§2) FIGS. 13a-13e show traumatic brain injury (TBI) in mice results in elevated brain cathepsin B activity, involved in motor deficit. […] Mice were subjected to the controlled cortical impact (CCI) model of TBI. Motor function was assessed by the rotarod assay on days 1, 3, and 7 after TBI. Control sham mice received surgery of the scalp but no TBI. Rotarod data are shown as mean+SD (n=5/group, mean+sem, *p<0.05, student's t-test). […] The TBI injury was conducted on the ipsilateral side of the brain cortex, shown by the tissue lesion at the site of TBI impact. […] Cathepsin B activity in homogenate of mouse brain cortex was measured with the Z-Nle-Lys-Arg-AMC substrate on day 6 after TBI. These TBI mice were treated with vehicle or Z-Arg-Lys-AOMK inhibitor (20 mg/kg, ip). (n=6 per group for vehicle-treated, and n=4 per group for treatment with inhibitor Z-Arg-Lys-AOMK; mean+sem, p<0.05, student's t-test).
Cytosol from brain homogenate (obtained on day 6 after TBI) was isolated by differential density centrifugation. Cathepsin B in the cytosol from brain cortex was measured by the substrate Z-Nle-Lys-Arg-AMC substrate. (n=6 per group for vehicle treated, and n=4 per group for treatment with inhibitor Z-Arg-Lys-AOMK: mean+sem, p<0.05, student's t-test).

TBI mice = assay: Rotarod motor function in controlled cortical impact (CCI) model of TBI; type: in vivo, mouse; settings: 20 mg/kg, ip, one day before TBI, day of TBI and day 1 after; measured day 1 after TBI
Procedure: as §2
TBI mice were treated with Z-Arg-Lys-AOMK inhibitor (20 mg/kg, ip) one day before TBI, on the day of TBI, and on day 1 after TBI. Motor function was measured on day 1 after TBI. (n=6 per group for vehicle-treated, and n=4 per group for treatment with inhibitor Z-Arg-Lys-AOMK; mean+sem, p<0.05, student's t-test).

T1 sequence (P10605 80-333): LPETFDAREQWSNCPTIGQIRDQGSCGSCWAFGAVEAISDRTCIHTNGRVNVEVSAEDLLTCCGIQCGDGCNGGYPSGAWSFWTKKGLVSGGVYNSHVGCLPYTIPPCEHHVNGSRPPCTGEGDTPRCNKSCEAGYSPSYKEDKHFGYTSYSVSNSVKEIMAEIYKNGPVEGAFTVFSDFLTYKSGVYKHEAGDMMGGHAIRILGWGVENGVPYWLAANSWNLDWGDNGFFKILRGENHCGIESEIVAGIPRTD

In the case of Z-Arg-Lys-AOMK, the “stress-induced increase in cell death (LDH released into the culture media)” value [1] is reported as “reduced”, the “increase in cytosolic cathepsin B activity” value (cathepsin B [2]) is reported as “blocked” and the “cathepsin B activity in brain cortex cytosol” value (cathepsin B [3]) is reported as “inhibition of cathepsin B activity”. The “cathepsin B activity in brain cortex homogenate” value (cathepsin B [3]) was “inhibition of cathepsin B activity” and the “motor deficit (rotarod)” value (TBI mice) was “improved motor deficit”.
